Data taken from ChEMBL document CHEMBL5625206, “Design, synthesis, and evaluation of novel pleuromutilin aryl acrylate derivatives as promising broad-spectrum antibiotics especially for combatting multi-drug resistant gram-negative bacteria” (Eur J Med Chem, 2023).
Converted amounts (≈) assume the structure as drawn. The source made the active and inactive calls. No cut-off for these calls is given here.

Columns and labels:
[1] = Toxicity in fasted male Sprague-Dawley rat assessed as relative lung weight ratio at 500 mg/kg, IG measured for 14 days (reference value: 0.437 +/- 0.064); assay type: organism-based; conditions: in vivo, po, 336 h, time 14 day
Staphylococcus aureus [2] = experiment: Induction of extracellular electrical conductivity in methicillin-resistant Staphylococcus aureus ATCC 33591 at MIC incubated for 8 hrs relative to control
Staphylococcus aureus [3] = experiment: Inhibition of biofilm formation of methicillin-resistant Staphylococcus aureus ATCC 33591 at 8 times MIC incubated for 24 hrs by crystal violet staining based analysis relative to control; assay type: functional
[4] = Toxicity in fasted male Sprague-Dawley rat assessed as body weight at 224 mg/kg, IG measured on same day (reference value: 212.7 +/- 13.2 g); assay type: organism-based; conditions: in vivo, po
[5] = Cytotoxicity against human HepG2 cells incubated for 24 hrs by CCK8 assay; assay type: toxicity, cell-based
Staphylococcus aureus [6] = experiment: Antibacterial activity against methicillin-resistant Staphylococcus aureus ATCC 33591 infected in neutropenic Kunming mouse model assessed as reduction in infection-induced kidney damage at 20 mg/kg, ip measured after 7 days; assay type: functional, organism-based; conditions: time 7.0 day
[7] = Toxicity in fasted female Sprague-Dawley rat assessed as relative heart weight ratio at 100 mg/kg, IG measured for 14 days (reference value: 0.429 +/- 0.016); assay type: organism-based; conditions: in vivo, po, 336 h, time 14 day
[8] = Toxicity in fasted female Sprague-Dawley rat assessed as body weight at 500 mg/kg, IG measured on same day (reference value: 165.2 +/- 8.1 g); assay type: organism-based; conditions: in vivo, po
[9] = Toxicity in fasted male Sprague-Dawley rat assessed as body weight at 331 mg/kg, IG measured after 7 days (reference value: 260.5 +/- 12.7 g); assay type: organism-based; conditions: in vivo, po, 168 h, time 7 day
[10] = Toxicity in fasted female Sprague-Dawley rat assessed as animal growth rate at 224 mg/kg, IG measured for 14 days (reference value: 29.85 +/- 4.97 g); assay type: organism-based; conditions: in vivo, po, 336 h, time 14 day
[11] = Toxicity in fasted male Sprague-Dawley rat assessed as relative spleen weight ratio at 500 mg/kg, IG measured for 14 days (reference value: 0.246 +/- 0.037); assay type: organism-based; conditions: in vivo, po, 336 h, time 14 day
[12] = MRT in fasted Sprague-Dawley rat at 1 mg/kg, iv by LC-MS/MS analysis; assay type: ADME, organism-based; conditions: in vivo
[13] = Toxicity in fasted female Sprague-Dawley rat assessed as body weight at 148 mg/kg, IG measured after 14 days (reference value: 214.3 +/- 9.8 g); assay type: organism-based; conditions: in vivo, po, 336 h, time 14 day
Staphylococcus aureus [14] = experiment: Antibacterial activity against methicillin-resistant Staphylococcus aureus ATCC 33591 infected in neutropenic Kunming mouse model assessed as restoration of infection- induced change in cell morphology in liver at 20 mg/kg, ip measured after 7 days; assay type: functional, organism-based; conditions: time 7.0 day
[15] = Toxicity in fasted female Sprague-Dawley rat assessed as relative spleen weight ratio at 331 mg/kg, IG measured for 14 days (reference value: 0.223 +/- 0.019); assay type: organism-based; conditions: in vivo, po, 336 h, time 14 day
[16] = Toxicity in fasted male Sprague-Dawley rat assessed as relative heart weight ratio at 148 mg/kg, IG measured for 14 days (reference value: 0.396 +/- 0.043); assay type: organism-based; conditions: in vivo, po, 336 h, time 14 day
[17] = Toxicity in fasted male Sprague-Dawley rat assessed as relative lung weight ratio at 224 mg/kg, IG measured for 14 days (reference value: 0.437 +/- 0.064); assay type: organism-based; conditions: in vivo, po, 336 h, time 14 day
[18] = Toxicity in fasted Sprague-Dawley rat assessed as mortality rate at 148 mg/kg, IG measured for 14 days; assay type: organism-based; conditions: in vivo, po, time 14 day
[19] = Toxicity in fasted male Sprague-Dawley rat assessed as animal growth rate at 100 mg/kg, IG measured for 14 days (reference value: 46.53 +/- 3.19 g); assay type: organism-based; conditions: in vivo, po, 336 h, time 14 day
[20] = Toxicity in fasted male Sprague-Dawley rat assessed as body weight at 331 mg/kg, IG measured on same day (reference value: 212.7 +/- 13.2 g); assay type: organism-based; conditions: in vivo, po
[21] = Toxicity in fasted male Sprague-Dawley rat assessed as relative spleen weight ratio at 100 mg/kg, IG measured for 14 days (reference value: 0.246 +/- 0.037); assay type: organism-based; conditions: in vivo, po, 336 h, time 14 day
[22] = Toxicity in fasted male Sprague-Dawley rat assessed as body weight at 331 mg/kg, IG measured after 14 days (reference value: 311.2 +/- 13.6 g); assay type: organism-based; conditions: in vivo, po, 336 h, time 14 day
[23] = Toxicity in fasted female Sprague-Dawley rat assessed as relative kidney weight ratio at 500 mg/kg, IG measured for 14 days (reference value: 0.802 +/- 0.031); assay type: organism-based; conditions: in vivo, po, 336 h, time 14 day
Escherichia coli [24] = experiment: Inhibition of biofilm formation of Escherichia coli ATCC 25922 at 8 times MIC incubated for 24 hrs by crystal violet staining based analysis relative to control; assay type: functional
Staphylococcus aureus [25] = experiment: Antibacterial activity against methicillin-resistant Staphylococcus aureus ATCC 33591 assessed as bacterial growth inhibition incubated for 24 hrs by CLSI based broth microdilution method; assay type: functional
Escherichia coli [26] = experiment: Bactericidal activity against Escherichia coli ATCC 25922 at 4 to 8 times MIC incubated for 8 to 12 hrs by time kill assay relative to control; assay type: functional; conditions: time 8-12 hrs
[27] = Toxicity in fasted male Sprague-Dawley rat assessed as relative lung weight ratio at 331 mg/kg, IG measured for 14 days (reference value: 0.437 +/- 0.064); assay type: organism-based; conditions: in vivo, po, 336 h, time 14 day
Escherichia coli [28] = experiment: Bactericidal activity against Escherichia coli ATCC 25922 incubated for 24 hrs by time kill assay; assay type: functional, organism-based
Escherichia coli [29] = experiment: Bactericidal activity against Escherichia coli ATCC 25922 assessed as reduction in colony count at 2 times MIC incubated for 24 hrs by time kill assay relative to control; assay type: functional
[30] = Toxicity in fasted male Sprague-Dawley rat assessed as relative spleen weight ratio at 148 mg/kg, IG measured for 14 days (reference value: 0.246 +/- 0.037); assay type: organism-based; conditions: in vivo, po, 336 h, time 14 day
[31] = Toxicity in fasted male Sprague-Dawley rat assessed as relative kidney weight ratio at 500 mg/kg, IG measured for 14 days (reference value: 0.820 +/- 0.072); assay type: organism-based; conditions: in vivo, po, 336 h, time 14 day
[32] = Toxicity in fasted male Sprague-Dawley rat assessed as animal growth rate at 224 mg/kg, IG measured for 14 days (reference value: 46.53 +/- 3.19 g); assay type: organism-based; conditions: in vivo, po, 336 h, time 14 day
[33] = Toxicity in fasted male Sprague-Dawley rat assessed as relative kidney weight ratio at 148 mg/kg, IG measured for 14 days (reference value: 0.820 +/- 0.072); assay type: organism-based; conditions: in vivo, po, 336 h, time 14 day
Staphylococcus aureus [34] = experiment: Disruption of cell membrane integrity in methicillin-resistant Staphylococcus aureus ATCC 33591 assessed as increase in red fluorescence at 1 to 4 times MIC incubated for 2 hrs by MycoLight green JJ98/PI staining based analysis; assay type: functional, organism-based
[35] = AUC (0 to t) in fasted Sprague-Dawley rat at 1 mg/kg, iv by LC-MS/MS analysis; assay type: ADME, organism-based; conditions: in vivo
[36] = Toxicity in fasted female Sprague-Dawley rat assessed as relative ovary weight ratio at 100 mg/kg, IG measured for 14 days (reference value: 0.061 +/- 0.010); assay type: organism-based; conditions: in vivo, po, 336 h, time 14 day
Staphylococcus aureus [37] = experiment: Antibacterial activity against methicillin-resistant Staphylococcus aureus 575 clinical isolate assessed as bacterial growth inhibition incubated for 24 hrs by CLSI based broth microdilution method; assay type: functional

C=C[C@]1(C)C[C@@H](OC(=O)COC(=O)/C=C/c2ccc(N(C)C)cc2)[C@]2(C)[C@H](C)CC[C@]3(CCC(=O)[C@H]32)[C@@H](C)[C@@H]1O
Ratio [1]: 0.399
Activity (Staphylococcus aureus [2]): 14.9%
inhibition (INH) (Staphylococcus aureus [3]): 97.64%
Activity [4]: 210.1 g
CC50 at 24 h [5]: > 200 µM
Activity (Staphylococcus aureus [6]): Active
Ratio [7]: 0.438
Activity [8]: 159.5 g
Activity [9]: 268 g
Activity [10]: 28.96%
Ratio [11]: 0.209
MRT [12]: 42.6 min
Activity [13]: 210.5 g
Activity (Staphylococcus aureus [14]): Active
Ratio [15]: 0.247
Ratio [16]: 0.379
Ratio [17]: 0.411
mortality at 336 h [18]: 0%
Activity [19]: 46.18%
Activity [20]: 217.4 g
Ratio [21]: 0.254
Activity [22]: 304.9 g
Ratio [23]: 0.798
inhibition (INH) (Escherichia coli [24]): 97.56%
MIC (Staphylococcus aureus [25]): 2 µg/mL (≈ 3.63 µM)
Activity (Escherichia coli [26]): 100%
Ratio [27]: 0.397
Activity (Escherichia coli [28]): Dose-Dependent Effect
Activity (Escherichia coli [29]): 6.14 log10CFU/ml
Ratio [30]: 0.227
Ratio [31]: 0.759
Activity [32]: 45.2%
Ratio [33]: 0.799
Activity (Staphylococcus aureus [34]): Active
AUC(0-t) [35]: 512 ng·h/mL
Ratio [36]: 0.071
MIC (Staphylococcus aureus [37]): 8 µg/mL (≈ 14.5 µM)
